Literature values, collected in patent US20250313559A1 (Bayer Aktiengesellschaft, priority 2024, published 2025).
Entries after “also recorded” stand apart in the source; their conditions may differ.

Key:
[1] = tested on: patients with HF and LVEF 35%; conditions: EMPHASIS-HF; HFrEF; cited from earlier work
patients with HFpEF = conditions: TOPCAT, global trial; cited from earlier work
[2] = tested on: patients with HF and left ventricular ejection fraction (LVEF) 35%; conditions: RALES; HFrEF; cited from earlier work
[3] = tested on: patients with HF and LVEF 45%; conditions: TOPCAT; HFmrEF/HFpEF; cited from earlier work

SMILES	Risk of death and hospitalization [1]	primary composite endpoint (patients with HFpEF)	Risk of death and hospitalization [2]	Primary endpoint (first heart failure hospitalization or cardiovascular death) [3]
COC(=O)[C@@H]1CC2=CC(=O)CC[C@]2(C)[C@@]23O[C@@H]2C[C@@]2(C)[C@@H](CC[C@@]24CCC(=O)O4)[C@H]13 [eplerenone]	decrease the risk of death and hospitalization	–	–	–
CC(=O)S[C@@H]1CC2=CC(=O)CC[C@]2(C)[C@H]2CC[C@@]3(C)[C@@H](CC[C@@]34CCC(=O)O4)[C@H]12 [spironolactone]	–	did not reduce the primary endpoint; also recorded: did not demonstrate benefit	decrease the risk of death and hospitalization	did not reduce the primary endpoint; also recorded: did not improve the primary outcome
